Holding throughout (assay): cells
Common to all, as to set-up: CellTiter-Glo 2.0 luminescence proliferation/viability assay, single agents, human tumour cell line panel
Background: In ATP-based viability assays light output follows the ATP content of the culture.

Assay [1] has as its system SW480. The settings on record: Homo sapiens, SW480, 96 h; single agent; read-out: IC50 SMACm. An outline of the steps: (§1)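 Human tumour cell lines were seeded into assay plates and held at 37°C with 5% CO2 for twenty-four hours, then exposed in triplicate to rising concentrations of the SMAC mimetic, from 4.5 nM to 10 μM, with DMSO as control. After 96 h, viability was read as CellTiter-Glo2.0 luminescence to derive single-agent IC50 values.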

Assay [2] relates to RCM-1. To be noted: Homo sapiens, RCM-1, 96 h; single agent; read-out: IC50 SMACm. An outline of the steps: as §1
The subject of assay [3] is WiDr. To be noted: Homo sapiens, WiDr, 96 h; single agent; read-out: IC50 SMACm. Put shortly:
as §1

The test system of assay [4] is SNU1411. The settings on record: 96 h; single agent; read-out: IC50 SMACm. Put shortly: as §1
Assay [5] relates to LS-411N. The settings on record: Homo sapiens, LS-411N, 96 h; single agent; read-out: IC50 SMACm. An outline of the steps:
as §1

The test system of assay [6] is NCI-H292. To be noted: Homo sapiens, NCI-H292, 96 h; single agent; read-out: IC50 SMACm. An outline of the steps:
as §1

Assay [7] concerns COLO-320-HSR. The settings on record: Homo sapiens, COLO-320-HSR, 96 h; single agent; read-out: IC50 SMACm. An outline of the steps: as §1
In assay [8] the test system is HGC-27. The settings on record: Homo sapiens, HGC-27, 96 h; single agent; read-out: IC50 SMACm. An outline of the steps:
as §1

Assay [9] relates to HT55. The settings on record: Homo sapiens, HT55, 96 h; single agent; read-out: IC50 SMACm. Put shortly: as §1
Assay [10] relates to JVE207. To be noted: 96 h; single agent; read-out: IC50 SMACm. An outline of the steps:
as §1

The test system of assay [11] is SNU1544. The settings on record: 96 h; single agent; read-out: IC50 SMACm. An outline of the steps: as §1
Assay [12] concerns C70. The settings on record: 96 h; single agent; read-out: IC50 SMACm. An outline of the steps:
as §1

In assay [13] the test system is NCI-H1792. The settings on record: Homo sapiens, NCI-H1792, 96 h; single agent; read-out: IC50 SMACm. Put shortly:
as §1

Assay [14] deals with NCI-H596. To be noted: Homo sapiens, NCI-H596, 96 h; single agent; read-out: IC50 SMACm. An outline of the steps:
as §1

The subject of assay [15] is HCC1195. To be noted: 96 h; single agent; read-out: IC50 SMACm. Put shortly: as §1

pIC50: −log10 of the molar value.

Usually pIC50 stands for the IC50 on a negative log10 scale, so that one unit is a factor of ten. `CN[C@@H](C)C(=O)Nc1ccc(-c2c(-c3cccnc3OC)nc3cc(C)ccn23)c(C#Cc2ccc3c(C)nccc3c2)n1` [SMACm, BI 891065]: the pIC50 in assay [1] was 5.24; in assay [2] it was 5.24; in assay [3] it was 5.37; in assay [4], 5.31; in [5], 5.35; in [6], 5.22. The pIC50 in [7] was 5.54; in assay [8], 5.54; in assay [9], 5.30; in [10] it was 5.14; in [11], 5.51; in assay [12], 5.48. Besides, the pIC50 in assay [13] was 5.32; in assay [14] it was 5.36; in assay [15], 5.34.

For the origin of these results see publication PMC12490239, “Combining BET inhibition with SMAC mimetics restricts tumor growth and triggers immune surveillance in preclinical cancer models” (Cell Reports Medicine, 2025).
